Like-named read-outs stand apart in the source and are kept apart here.
Legend:
bacteria = assay: Antibacterial activity of bismuth-thiols; format: cell-based; settings: for antibacterial / antimicrobial activity in words: comparison between bismuth-thiols
[1] = test system: CLP mice (sepsis induced by cecal ligation and perforation); assay: Survival of septic mice (cecal ligation and perforation, CLP) treated with BisEDT; format: in vivo
Procedure: In the absence of any treatment, mortality rate is greater than 90% within 18-72 hours.
The object was to determine if Bismuth-ethanedithiol (BisEDT) in a molar ratio of 1:2, would protect CLP mice. Mortality rate of greater than 90% is observed within 18-72 hours in this model. A dose response study was performed to determine an optimal dose of BisEDT. […] Data were analyzed using Chi-Square and Krumkal Walkis tests. The data are presented below as average ±SEM. Data compared to control (dose 0) were considered significant (*) at p<0.05.

[2] = test system: macrophages/monocytes from CLP mice; format: in vivo
IL-1α = assay: Serum cytokine levels in CLP mice treated with BisEDT; format: in vivo; settings: BisEDT 1:2 (Bismuth 20 μg/kg BW) tail vein 5 h after CLP, sacrificed 18 h after injection
TNFα = assay: as above; format: in vivo; settings: BisEDT 1:2 (Bismuth 20 μg/kg BW) tail vein 5 h after CLP, sacrificed 18 h after injection, * p<0.05
IL-10 [3] = assay: as above; format: in vivo; settings: BisEDT 1:2 (Bismuth 20 μg/kg BW) tail vein 5 h after CLP, sacrificed 18 h after injection
TGFβ1 = assay: as above; format: in vivo; settings: BisEDT 1:2 (Bismuth 20 μg/kg BW) tail vein 5 h after CLP, sacrificed 18 h after injection
IL-10 [4] = format: in vivo, mice
[5] = test system: pro- and anti-inflammatory cytokines; assay: Polymicrobial sepsis induced up-regulation of cytokines in mice; settings: mouse, in vivo
mice [6] = assay: Toxicity / lethality to mice; settings: mouse, in vivo
[7] = Stability of the bismuth-thiol compound; format: physicochemical; settings: compared to bismuth:dimercaprol
mice [8] = settings: according to MSDS sheets from Aldrich Chemical Company; cited from earlier work
[9] = repeat study, Injection Once a Day, dose 2 ug/kg BW, * p<0.05
[10] = repeat study, Injection Once a Day, dose 200 ug/kg BW
[11] = repeat study, Injection Twice a Day, dose 2 ug/kg BW, * p<0.05
[12] = repeat study, Injection Twice a Day, dose 200 ug/kg BW

## bismuth:2-mercaptoethylamine
bacteria; antibacterial activity
  decrease in activity compared with bismuth:β-mercaptoethanol: 5 fold

## CC(O)C(C)S (centres unmarked) [3-mercapto-2-butanol]
bacteria; in combination with bismuth
  amount of thiol required relative to dimercaprol to achieve similar inhibitory activity: Approximately 3 times

## SCCCCS.[Bi] [Bismuth-1,4-butanedithiol]
bacteria
  less antibacterial activity (compared with vicinal dithiols Bismuth-2,3-BDT / bismuth:ethanedithiol): ~100 fold

## O=S(=O)(O)CC(S)CS (centres unmarked) [dimercaptopropane-1-sulfonic acid, reference compound]
bacteria
  antibacterial synergy of the thiol with bismuth: did not show antibacterial synergy

## Bismuth:propanedithiol (1,3-propanedithiol)
bacteria
  antibacterial / antimicrobial activity in words: works quite well, but not as well as the vicinal dithiols

## Bismuth-2,3-BDT (2,3-butanedithiol)
bacteria
  antibacterial / antimicrobial activity in words: as good as bismuth:ethanedithiol

## dimercapto-succinic acid [reference compound]
bacteria
  antibacterial synergy of the thiol with bismuth: largely abolished synergy with bismuth
bacteria; listed as DMSA
  antibacterial synergy of the thiol with bismuth: did not show antibacterial synergy

## Bismuth-ethanedithiol [BisEDT]
[1]; dose 2 ug/kg BW via tail vein once a day for three days, observed 8 days, average ±SEM, dose response study
  Survival: 64 ± 43 h
[1]; dose 2 ug/kg BW via tail vein once a day for three days, observed 8 days, dose response study
  Survival (%): 20%
[1]; dose 20 ug/kg BW via tail vein once a day for three days, average ±SEM, dose response study, * p<0.05 vs dose 0
  Survival (hrs.): 110 ± 35* hrs.
[1]; dose 20 ug/kg BW via tail vein once a day for three days, dose response study, * p<0.05 vs dose 0
  Survival (%): 60* %
[1]; dose 200 ug/kg BW via tail vein once a day for three days, average ±SEM, dose response study
  Survival: 75 ± 21 h
[1]; dose 200 ug/kg BW via tail vein once a day for three days, dose response study
  Survival (%): 40%
[1]; dose 2000 ug/kg BW via tail vein once a day for three days, average ±SEM, dose response study
  Survival: 48 ± 24 h
[1]; dose 2000 ug/kg BW via tail vein once a day for three days, dose response study
  Survival (%): 20%
[1]; dose of 20 μg/kg body weight
  effect on survival: significantly increase survival
[1]; once daily to twice daily, P=0.73
  effect of increase in dose frequency on survival: did not increase survival
[1]; [9]
  Survival (%): 56* %
  Survival (hrs.): 109 ± 29* hrs.
[1]; [10]
  Survival: 75 ± 21 h
  Survival (%): 40%
[1]; [11]
  Survival (%): 44* %
  Survival (hrs.): 103 ± 29* hrs.
[1]; [12]
  Survival: 97 ± 40 h
  Survival (%): 40%
[1]; treatment group versus 0% (control), summary of Example 1
  percentage survival, overall: 60%
[1]; with treatment versus approximately 36 hours without treatment, summary of Example 1
  survivability, overall: 108 h
[2]; from BisEDT-treated CLP mice (Bismuth 20 μg/kg BW), without in vitro stimulation
  amounts of superoxide, H2O2 and NO2- produced by macrophages/monocytes, unstimulated: in between that produced by the control and untreated CLP mice but not significantly different from either of these groups
[2]; mouse, in vivo
  release of superoxide, H2O2 and NO2- by macrophages/monocytes, stimulated: significantly increased
IL-1α
  Serum IL-1α level: 10.5 ± 1.1 pg/mL
TNFα
  Serum TNFα level: 13.7 ± 2.9* pg/ml
IL-10 [3]
  Serum IL-10 level: 165 ± 69 pg/mL
TGFβ1
  Serum TGFβ1 level: 24.8 ± 3.6 pg/mL
IL-10 [4]; from CLP mice treated with BisEDT, unstimulated
  IL-10 production in vitro by splenic macrophages: do not produce IL-10 in vitro as much as the macrophages from BisEDT untreated CLP animals
IL-10 [4]; mouse, in vivo
  IL-10 release by splenic macrophages, stimulated: did not significantly up-regulate the IL-10 release
[5]
  prevention of sepsis induced up-regulation of pro- and anti-inflammatory cytokines: able to prevent the polymicrobial sepsis induced up-regulation of both pro- and anti-inflammatory cytokines
bacteria
  antibacterial / antimicrobial activity in words: stronger antimicrobial agent than bismuth:dimercaprol
Mice [6]
  toxicity compared to bismuth:dimercaprol: no more toxic
[7]
  stability: more stable compound at all molar ratios and pHs
Mice [8]
  lethality to mice: very similar to that of dimercaprol

Source: US6380248B1, “Metal-thiols as immunomodulating agents” (Winthrop University Hospital, priority 1998, dated 2002)
